The nature of this data set: Pharmacokinetics in mice, single gavage. The format is in vivo, CD-1 mouse (male). The settings on record: CD-1 mouse, 300 mpk, plasma. On the procedure: Experimental purpose: To test the pharmacokinetics of the compound in mice
CD-1 mouse (male), vehicle (0.5% (w/v) methylcellulose 0.5% (v/v) Tween 80 aqueous solution), trifluoroacetate of compound 0027.
The vehicle was an aqueous solution of 0.5% (w/v) methylcellulose and 0.5% (v/v) Tween 80, and it was prepared according to the following procedure:
Formulation of preparations for intragastric administration: […]
a. An appropriate amount of the test product was weighed and put into a glass bottle;
b. 70% volume of vehicle (0.5% (w/v) methyl cellulose 0.5% (v/v) Tween 80 aqueous solution) was added;
c. The preparation was stirred until it was visually homogeneous, and subjected to ultrasound in water bath as needed;
e. Make up the remaining volume of 0.5% methylcellulose+0.5% Tween 80, and the mixture was stirred until being visually homogeneous.
Animals in groups 1 and 2 were administrated 5 mg/mL and 30 mg/mL compounds by single gavage, with a dose volume of 10 mL/kg.
The body weight of the animals was weighed before administration, and the administration volume was calculated based on the body weight.
Whole blood samples (30 μL) were collected at the prescribed time (0.25, 0.5, 1, 2, 4, 6, 8, 24 h) through saphenous vein blood collection, and the actual blood collection time was recorded in the test record. […]

Each structure is given as a SMILES string.

As for `COc1cc(OC)c(Cl)c(-c2nc(-c3nc(-c4cn(C)nc4C)cnc3N)cn(C)c2=O)c1`, the Tlast worked out at 24.0 h.
